Source: article PMC12844124, “Synthesis and Study of Substituted Chalcones Combined with Fluoroazobenzenes—New Photoswitches for Application in Biological Systems” (Molecules, 2026)

What was measured:
PC-3 cells = assay: Cell cycle analysis by flow cytometry, PC-3; type: cell-based, human; conditions: Z conformer, 24 h; for percentage of cells in the G2/M phase: control 26.5%
Procedure: (§1) The BJ or PC-3 cells were treated as described previously, with the exception that 0.15 × 10^6 cells per well were seeded in 6-well plates. After 24 h of treatment, cells were harvested by trypsinization (Biowest, Nuaillé, France, L0931), washed twice, resuspended in PBS, and added to cold 70% ethanol for overnight fixation at −20 °C. Subsequently, cells were centrifuged and resuspended in PBS containing 5 µg/mL of propidium iodide in PBS (Sigma-Aldrich, St. Louis, MO, USA, 4170), 0.1% Triton X-100, and 10 µg/mL of DNAse-free RNAse (A&A Biotechnology, Gdansk, Poland, 1006-10) in the dark for 4 h at 37 °C. FACS analysis was performed using a FACSCanto II flow cytometer and FACSDiva, version 9.0 software (BD Biosciences, San Jose, CA, USA). Flow rate was set to about 1000 events/cells per second. Signals from at least 10,000 events per sample were captured. The percentages of PC-3 cells in cell cycle phases (G0/G1, S, and G2/M) were determined using ModFit LT 4.1.7 (Verity Software House, Topsham, ME, USA).

BJ fibroblasts = assay: Cell cycle analysis by flow cytometry, BJ fibroblasts; type: cell-based, human; conditions: Z conformer, concentration not given
Procedure: as §1

[1] = Photostationary state (PSS) composition by 19F NMR; type: physicochemical; conditions: irradiation 525 nm, DMSO-d6
Text: Azo compounds have been applied in various fields due to their ability to undergo structural changes, with one of the most interesting applications being the direct conversion of light into mechanical energy. However, azobenzenes generally face two main limitations that hinder their practical use in biological and materials sciences. The first is the need for UV light to induce the E→Z isomerization through π→π* excitation, which can potentially interfere with and damage the surrounding environment. The second limitation is the typically incomplete reverse Z→E photoisomerization, which is induced by irradiation in the visible region. In this region, the n→π* bands of the E and Z isomers largely overlap, making it difficult to achieve E-rich photostationary states (PSSs) after back-switching. These limitations can be overcome by modifying azobenzene in such a way that the n→π* bands of the E and Z isomers are sufficiently separated. If the separation is large enough, the two n→π* bands can be distinct, allowing visible light to selectively isomerize both isomers with high to complete E/Z photoconversions. We are looking for switches that operate within the visible light range of 380–750 nm, which is harmless. Fluorine-substituted azobenzenes are well-suited for designing visible-light-responsive systems, offering stable and bidirectional photoconversions along with tissue-compatible properties. We confirmed that the compounds we synthesized successfully dock with tubulin. In the next step, we tested whether the added azo compound would meet our expectations as a visible light switch. For this purpose, we used NMR spectroscopy. We measured ^19F spectra of (17a–17c, 17e–17g, and 17i–17l) at nine wavelengths from 390 nm to 610 nm to check which wavelengths produce the most Z isomer after exposure (see Section S4.2 in Supplementary Materials). We selected DMSO as the solvent due to its ability to dissolve both polar and nonpolar molecules, which is essential for the analytical methods employed in this study. Its intermediate polarity also makes it a good surrogate for both organic and aqueous solvents. Additionally, DMSO is commonly used for preparing stock solutions, which are then illuminated and diluted into aqueous systems for assessing biological activity. […]
Figure 2 (a) Photostationary state (PSS) compositions for chalcones (17a–17c, 17e–17g, and 17i–17l) determined by ^19F NMR analysis (c ≈ 100 mM in DMSO-d6), presented in a bar chart; (b) representative multiple photoswitching rounds of 60 µM of (17j) in DMSO by pulsed green (525 nm) and blue (430 nm) light illumination. The photochemical stability of the drug is analyzed via repeated cycles of irradiation (software: Microsoft Excel).

[2] = UV–VIS spectra of E/Z isomers in DMSO; type: physicochemical
Procedure: For this purpose, the UV–VIS spectra were measured for all synthesized hybrids (17a–17l) at concentrations from 20 to 500 µM in dimethyl sulfoxide (DMSO) in light at λ 505 nm and for (17a–17c), (17e–17g), and (17i–17l) at λ 525 nm, respectively, as detailed in Table 1 (see Section S4.4 in Supplementary Materials).

share of the Z configuration (PSS) [1]: 73.2%
εmax (n→π*) ([2]; E isomer): 922 dm^3·mol^−1·cm^−1
λmax n→π* (E) ([2]; E isomer): 448.3 nm
εmax (n→π*) ([2]; Z isomer): 1130 dm^3·mol^−1·cm^−1
λmax n→π* (Z) ([2]; Z isomer): 417.4 nm
Δ λmax n→π* ([2]; between E and Z isomers): 30.9 nm
SMILES: COc1cc(/C=C/C(=O)c2cccc(/N=N/c3c(F)cccc3F)c2)cc(OC)c1 [Compound 17j]
percentage of cells in the G2/M phase (PC-3 cells; 20 µM): 30.2%
percentage of cells in the S phase (PC-3 cells; 30 µM): 28.8%
percentage of cells in the G2/M phase (PC-3 cells; 30 µM): 37.0%
percentage of cells in the S phase (PC-3 cells; 40 µM): 31%
percentage of cells in the G2/M phase (PC-3 cells; 40 µM): 32.1%
cells undergoing the G0/G1 phase (BJ fibroblasts; decrease from 86.4): 51.5%
cells in the S phase (BJ fibroblasts; increase from 0.4): 8%
cells in the G2/M phase (BJ fibroblasts; increase from 11.9): 15.6%
